Where two headings read alike, the source gives them in different places.
Tests used:
[1] = system: hiPSC-CM (iCell Cardiomyocytes^2); test: RTCA CardioECR assessment (impedance and electrophysiology parameters)
Procedure, shortened: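 iCell^2 cardiomyocytes on fibronectin-coated ePlates monitored continuously by impedance for cell index, beating rate and amplitude. Field potential duration and spike amplitude were recorded from day 4–6 after monolayer formation. Data were double-normalized to DMSO control and baseline, with variability given as SD.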

[2] = system: hiPSC-CM (iCell Cardiomyocytes^2); test: Intracellular miRNA expression by RT-qPCR in hiPSC-CM pellets after 72-hour treatment; settings: for fold induction at 0.1 µM / fold induction at 0.3 µM / fold induction at 1 µM / fold induction at 3 µM: Homo sapiens, 72 h
Procedure, shortened: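 After 72-hour treatment and RTCA CardioECR assessment, total RNA from hiPSC-CM pellets was reverse transcribed, pre-amplified and quantified by TaqMan RT-qPCR against a 17-miRNA panel. Triplicates were pooled, so no statistical analysis was performed.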

[3] = ref extensive literature search, cited from earlier work
[4] = read-out: hsa-miR-7-5p fold change
[5] = read-out: hsa-miR-29a-5p fold change
[6] = read-out: hsa-miR-96-5p fold change
[7] = read-out: hsa-miR-126-3p fold change
[8] = read-out: hsa-miR-133b fold change
[9] = read-out: hsa-miR-146b-5p fold change
[10] = read-out: hsa-miR-182-5p fold change
[11] = read-out: hsa-miR-185-3p fold change
[12] = read-out: hsa-miR-187-3p fold change
[13] = read-out: hsa-miR-208b-3p fold change
[14] = read-out: hsa-miR-365a-5p fold change

CC(=O)[C@]1(O)Cc2c(O)c3c(c(O)c2[C@@H](O[C@H]2C[C@H](N)[C@H](O)[C@H](C)O2)C1)C(=O)c1ccccc1C3=O [Idarubicin]
Cell index (CI) MEC ([1]; hiPSC-CM, 72-hour treatment, lowest concentration causing at least 20% change from baseline): 0.1 µM
RTCA, MEC (CI) ([1]; hiPSC-CM, change ≥20%, Table 2): 0.1 µM (CI, BR)
Beating Rate MEC ([1]; human, 72 h): 0.1 µM
Beating rate (BR) MEC ([1]; human, 72 h): 0.1 µM
Cell Index MEC ([1]; human, 72 h): 0.1 µM
Contractility Amplitude MEC ([1]; human, 72 h): 1 µM
Field Potential Duration MEC ([1]; human, 72 h): 0.1 µM
RTCA, MEC (BR) ([1]; human, 72 h): 0.1 µM (CI, BR)
Spike Amplitude (SA) MEC ([1]; human, 72 h): 0.1 µM
miRNAs hiPSC-CM pellet, MEC overall [2]: 0.3 µM
miRNAs upregulated at the MEC overall (hiPSC-CM pellet) [2]: miR-96 -5p, miR-126-3p, miR-133b, miR-185-3p
fold induction at 0.1 µM [2, 4]: 4.5
fold induction at 0.3 µM [2, 4]: 5.8
fold induction at 1 µM [2, 4]: 3.5
fold induction at 3 µM [2, 4]: 0.2
fold induction at 0.1 µM [2, 5]: 1.2
fold induction at 0.3 µM [2, 5]: 4.4
fold induction at 1 µM [2, 5]: 1.2
fold induction at 3 µM [2, 5]: 3
fold induction at 0.1 µM [2, 6]: 9
fold induction at 0.3 µM [2, 6]: 21.3
fold induction at 1 µM [2, 6]: 53.4
fold induction at 3 µM [2, 6]: 0.8
fold induction at 0.1 µM [2, 7]: 1
fold induction at 0.3 µM [2, 7]: 1.3
fold induction at 1 µM [2, 7]: 0.7
fold induction at 3 µM [2, 7]: 1.1
fold induction at 0.1 µM [2, 8]: 0.5
fold induction at 0.3 µM [2, 8]: 2.5
fold induction at 1 µM [2, 8]: 1.2
fold induction at 3 µM [2, 8]: 10.9
fold induction at 0.1 µM [2, 9]: 3.5
fold induction at 0.3 µM [2, 9]: 7.3
fold induction at 1 µM [2, 9]: 2
fold induction at 3 µM [2, 9]: 3.4
fold induction at 0.1 µM [2, 10]: 0.03
fold induction at 0.3 µM [2, 10]: 0.1
fold induction at 1 µM [2, 10]: 0.4
fold induction at 3 µM [2, 10]: 0.7
fold induction at 0.1 µM [2, 11]: 1.6
fold induction at 0.3 µM [2, 11]: 1.3
fold induction at 1 µM [2, 11]: 1
fold induction at 0.1 µM [2, 12]: 9
fold induction at 0.3 µM [2, 12]: 8.5
fold induction at 1 µM [2, 12]: 2.9
fold induction at 3 µM [2, 12]: 1.9
fold induction at 0.1 µM [2, 13]: 0.5
fold induction at 0.3 µM [2, 13]: 0.6
fold induction at 1 µM [2, 13]: 0.8
fold induction at 3 µM [2, 13]: 2
fold induction at 0.1 µM [2, 14]: 3.5
fold induction at 0.3 µM [2, 14]: 2.1
fold induction at 1 µM [2, 14]: 1.1
fold induction at 3 µM [2, 14]: 3.4
fold induction at 0.1 µM ([2]; read-out: hsa-miR-[…] change): 1
fold induction at 0.3 µM ([2]; read-out: hsa-miR-[…] change): 1.1
fold induction at 1 µM ([2]; read-out: hsa-miR-[…] change): 0.7
fold induction at 3 µM ([2]; read-out: hsa-miR-[…] change): 3.4
Cmax total ([3]; Supplementary Table 1): 0.12 to 3.8 µM
Cmax total ([3]; Table 1): 0.12 to 3.80 µM

From paper PMC12332266 (Frontiers in Pharmacology, 2025)
